# Laboratory results reported in the supplement of paper PMC10307832.
# Tests used:
# Assay in all cases: relative viability (nuclei count vs DMSO), 5 days (fraction); higher = more cells survive
# NCI-H650 = test system: NCI-H650
# How it was run: (§1)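 Relative viability divides the nuclei count in treated wells by that in vehicle wells. Lung cancer cell lines were seeded in 1536-well plates, dosed by pin tool the next day, and fixed and stained after 5 days in one step with final 0.05% Triton X-100, 1% formaldehyde and 1 ug/ml Hoechst. Dosing was a single drug or a fixed anchor-drug dose plus five library-drug doses (not always all listed) in √10 steps, and values are medians of duplicate plates imaged at 4×.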
# LU99A = test system: LU99A
# How it was run: as §1
# NCI-H2170 = test system: NCI-H2170
# How it was run: as §1
# 201T = test system: 201T
# How it was run: as §1
# NCI-H2087 = test system: NCI-H2087
# How it was run: as §1
# EKVX = test system: EKVX
# How it was run: as §1
# NCI-H1437 = test system: NCI-H1437
# How it was run: as §1
# NCI-H2085 = test system: NCI-H2085
# How it was run: as §1
# HCC-827 = test system: HCC-827
# How it was run: as §1
# SW 1573 = test system: SW 1573
# How it was run: as §1
# NCI-H1975 = test system: NCI-H1975
# How it was run: as §1
# HCC-44 = test system: HCC-44
# How it was run: as §1
# H3255 = test system: H3255
# How it was run: as §1
# NCI-H1666 = test system: NCI-H1666
# How it was run: as §1
# EPLC-272H = test system: EPLC-272H
# How it was run: as §1
# LCLC-97TM1 = test system: LCLC-97TM1
# How it was run: as §1
# NCI-H647 = test system: NCI-H647
# How it was run: as §1
# LOU-NH91 = test system: LOU-NH91
# How it was run: as §1
# BEN = test system: BEN
# How it was run: as §1
# COR-L 105 = test system: COR-L 105
# How it was run: as §1
# PC-3 [JPC-3] = test system: PC-3 [JPC-3]
# How it was run: as §1
smiles,measurement,setting,value
O=c1cc(-c2cccc3c2Sc2ccccc2S3)oc(N2CCOCC2)c1 + CS(=O)(=O)N1CCN(Cc2cc3nc(-c4cccc5[nH]ncc45)nc(N4CCOCC4)c3s2)CC1 [Pictilisib] (partner 1 µM),relative viability,NCI-H650; first compound 0.08 µM,0.807
same,relative viability,NCI-H650; first compound 0.253 µM,0.873
same,relative viability,NCI-H650; first compound 0.8 µM,0.741
same,relative viability,NCI-H650; first compound 2.53 µM,0.806
same,relative viability,NCI-H650; first compound 8 µM,0.767
same,relative viability,LU99A; first compound 0.08 µM,0.294
same,relative viability,LU99A; first compound 0.253 µM,0.341
same,relative viability,LU99A; first compound 0.8 µM,0.378
same,relative viability,LU99A; first compound 2.53 µM,0.332
same,relative viability,LU99A; first compound 8 µM,0.418
same,relative viability,NCI-H2170; first compound 0.08 µM,0.31
same,relative viability,NCI-H2170; first compound 0.253 µM,0.342
same,relative viability,NCI-H2170; first compound 0.8 µM,0.312
same,relative viability,NCI-H2170; first compound 2.53 µM,0.287
same,relative viability,NCI-H2170; first compound 8 µM,0.275
same,relative viability,201T; first compound 0.08 µM,0.652
same,relative viability,201T; first compound 0.253 µM,0.718
same,relative viability,201T; first compound 0.8 µM,0.51
same,relative viability,201T; first compound 2.53 µM,0.616
same,relative viability,201T; first compound 8 µM,0.742
same,relative viability,NCI-H2087; first compound 0.08 µM,0.954
same,relative viability,NCI-H2087; first compound 0.253 µM,1.15
same,relative viability,NCI-H2087; first compound 0.8 µM,0.931
same,relative viability,NCI-H2087; first compound 2.53 µM,0.87
same,relative viability,NCI-H2087; first compound 8 µM,0.973
same,relative viability,EKVX; first compound 0.08 µM,0.418
same,relative viability,EKVX; first compound 0.253 µM,0.521
same,relative viability,EKVX; first compound 0.8 µM,0.286
same,relative viability,EKVX; first compound 2.53 µM,0.439
same,relative viability,EKVX; first compound 8 µM,0.47
same,relative viability,NCI-H1437; first compound 0.08 µM,0.464
same,relative viability,NCI-H1437; first compound 0.253 µM,0.534
same,relative viability,NCI-H1437; first compound 0.8 µM,0.395
same,relative viability,NCI-H1437; first compound 2.53 µM,0.373
same,relative viability,NCI-H1437; first compound 8 µM,0.37
same,relative viability,NCI-H2085; first compound 0.08 µM,0.44
same,relative viability,NCI-H2085; first compound 0.253 µM,0.586
same,relative viability,NCI-H2085; first compound 0.8 µM,0.476
same,relative viability,NCI-H2085; first compound 2.53 µM,0.464
same,relative viability,NCI-H2085; first compound 8 µM,0.494
same,relative viability,HCC-827; first compound 0.08 µM,0.945
same,relative viability,HCC-827; first compound 0.253 µM,1.13
same,relative viability,HCC-827; first compound 0.8 µM,1.12
same,relative viability,HCC-827; first compound 2.53 µM,0.743
same,relative viability,HCC-827; first compound 8 µM,1.1
same,relative viability,SW 1573; first compound 0.08 µM,0.539
same,relative viability,SW 1573; first compound 0.253 µM,0.554
same,relative viability,SW 1573; first compound 0.8 µM,0.586
same,relative viability,SW 1573; first compound 2.53 µM,0.556
same,relative viability,SW 1573; first compound 8 µM,0.597
same,relative viability,NCI-H1975; first compound 0.08 µM,0.276
same,relative viability,NCI-H1975; first compound 0.253 µM,0.311
same,relative viability,NCI-H1975; first compound 0.8 µM,0.236
same,relative viability,NCI-H1975; first compound 2.53 µM,0.272
same,relative viability,NCI-H1975; first compound 8 µM,0.269
same,relative viability,HCC-44; first compound 0.08 µM,0.457
same,relative viability,HCC-44; first compound 0.253 µM,0.655
same,relative viability,HCC-44; first compound 0.8 µM,0.536
same,relative viability,HCC-44; first compound 2.53 µM,0.468
same,relative viability,HCC-44; first compound 8 µM,0.577
same,relative viability,H3255; first compound 0.08 µM,0.408
same,relative viability,H3255; first compound 0.253 µM,0.463
same,relative viability,H3255; first compound 0.8 µM,0.427
same,relative viability,H3255; first compound 2.53 µM,0.402
same,relative viability,H3255; first compound 8 µM,0.513
same,relative viability,NCI-H1666; first compound 0.08 µM,0.404
same,relative viability,NCI-H1666; first compound 0.253 µM,0.416
same,relative viability,NCI-H1666; first compound 0.8 µM,0.323
same,relative viability,NCI-H1666; first compound 2.53 µM,0.411
same,relative viability,NCI-H1666; first compound 8 µM,0.396
same,relative viability,EPLC-272H; first compound 0.08 µM,0.321
same,relative viability,EPLC-272H; first compound 0.253 µM,0.334
same,relative viability,EPLC-272H; first compound 0.8 µM,0.29
same,relative viability,EPLC-272H; first compound 2.53 µM,0.289
same,relative viability,EPLC-272H; first compound 8 µM,0.327
same,relative viability,LCLC-97TM1; first compound 0.08 µM,0.166
same,relative viability,LCLC-97TM1; first compound 0.253 µM,0.174
same,relative viability,LCLC-97TM1; first compound 0.8 µM,0.208
same,relative viability,LCLC-97TM1; first compound 2.53 µM,0.158
same,relative viability,LCLC-97TM1; first compound 8 µM,0.184
same,relative viability,NCI-H647; first compound 0.08 µM,0.341
same,relative viability,NCI-H647; first compound 0.253 µM,0.499
same,relative viability,NCI-H647; first compound 0.8 µM,0.365
same,relative viability,NCI-H647; first compound 8 µM,0.603
same,relative viability,LOU-NH91; first compound 0.08 µM,0.519
same,relative viability,LOU-NH91; first compound 0.253 µM,0.542
same,relative viability,LOU-NH91; first compound 0.8 µM,0.438
same,relative viability,LOU-NH91; first compound 2.53 µM,0.504
same,relative viability,LOU-NH91; first compound 8 µM,0.531
same,relative viability,BEN; first compound 0.08 µM,0.533
same,relative viability,BEN; first compound 0.253 µM,0.671
same,relative viability,BEN; first compound 0.8 µM,0.531
same,relative viability,BEN; first compound 2.53 µM,0.591
same,relative viability,BEN; first compound 8 µM,0.686
same,relative viability,COR-L 105; first compound 0.08 µM,0.502
same,relative viability,COR-L 105; first compound 0.253 µM,0.441
same,relative viability,COR-L 105; first compound 0.8 µM,0.362
same,relative viability,COR-L 105; first compound 2.53 µM,0.338
same,relative viability,COR-L 105; first compound 8 µM,0.408
same,relative viability,PC-3 [JPC-3]; first compound 0.08 µM,0.694
same,relative viability,PC-3 [JPC-3]; first compound 0.253 µM,0.761
same,relative viability,PC-3 [JPC-3]; first compound 0.8 µM,0.644
same,relative viability,PC-3 [JPC-3]; first compound 2.53 µM,0.662
same,relative viability,PC-3 [JPC-3]; first compound 8 µM,0.863
